Assay results published in publication PMC11871066, “Structure-based discovery of hydrocarbon-stapled paxillin peptides that block FAK scaffolding in cancer” (Nature Communications, 2025).

Legend:
Experiment in all cases: Eurofins KINOMEscan profiling, 97 kinases
[1] = molecular target: 97 kinases (kinase named in endpoint) (Homo sapiens, UniProt Q13153); settings: read-out: % Ctrl, PAK1
Method: (§1) This experiment was performed by Eurofins KINOMEscan™ Profiling Service. […] The lysates were centrifuged and filtered, the remaining kinases were produced in HEK-293 cells and subsequently tagged with DNA for qPCR detection. […] The liganded beads were blocked with excess biotin and washed with blocking buffer (SeaBlock (Pierce), 1% BSA, 0.05% Tween-20, 1 mM DTT). […] Test compounds were prepared as 100x stocks in 100% DMSO and directly diluted into the assay. All reactions were performed in polypropylene 384-well plates in a final volume of 0.02 ml. […] The kinase concentration in the eluates was measured by qPCR.
(§2) (negative control signal - positive control signal)] x 100. ( b) AccompanyingSelectivity Scores or S -scores
(§3) which are quantitative measures of compound selectivity. They are calculated by dividing the number of
(§4) kinases that compounds bind to by the total number of distinct kinases tested, excluding mutant variants.
(§5) S(35)= ( num ber of non -mutant kinases with %Ctrl <35)/(number of non- mutant kinases tested)], S(10)=
(§6) non- mutant kinases with %Ctrl <1)/(number of non- mutant kinases tested)].

[2] = molecular target: 97 kinases (kinase named in endpoint) (Homo sapiens, UniProt Q15303); settings: read-out: % Ctrl, ERBB4
Method: as §1, §2, §3, §4, §5, §6

[3] = molecular target: 97 kinases (kinase named in endpoint) (Homo sapiens, UniProt P10721); settings: read-out: % Ctrl, KIT
Chain of 97 kinases (kinase named in endpoint) (Homo sapiens, UniProt P10721) (P10721 26-976): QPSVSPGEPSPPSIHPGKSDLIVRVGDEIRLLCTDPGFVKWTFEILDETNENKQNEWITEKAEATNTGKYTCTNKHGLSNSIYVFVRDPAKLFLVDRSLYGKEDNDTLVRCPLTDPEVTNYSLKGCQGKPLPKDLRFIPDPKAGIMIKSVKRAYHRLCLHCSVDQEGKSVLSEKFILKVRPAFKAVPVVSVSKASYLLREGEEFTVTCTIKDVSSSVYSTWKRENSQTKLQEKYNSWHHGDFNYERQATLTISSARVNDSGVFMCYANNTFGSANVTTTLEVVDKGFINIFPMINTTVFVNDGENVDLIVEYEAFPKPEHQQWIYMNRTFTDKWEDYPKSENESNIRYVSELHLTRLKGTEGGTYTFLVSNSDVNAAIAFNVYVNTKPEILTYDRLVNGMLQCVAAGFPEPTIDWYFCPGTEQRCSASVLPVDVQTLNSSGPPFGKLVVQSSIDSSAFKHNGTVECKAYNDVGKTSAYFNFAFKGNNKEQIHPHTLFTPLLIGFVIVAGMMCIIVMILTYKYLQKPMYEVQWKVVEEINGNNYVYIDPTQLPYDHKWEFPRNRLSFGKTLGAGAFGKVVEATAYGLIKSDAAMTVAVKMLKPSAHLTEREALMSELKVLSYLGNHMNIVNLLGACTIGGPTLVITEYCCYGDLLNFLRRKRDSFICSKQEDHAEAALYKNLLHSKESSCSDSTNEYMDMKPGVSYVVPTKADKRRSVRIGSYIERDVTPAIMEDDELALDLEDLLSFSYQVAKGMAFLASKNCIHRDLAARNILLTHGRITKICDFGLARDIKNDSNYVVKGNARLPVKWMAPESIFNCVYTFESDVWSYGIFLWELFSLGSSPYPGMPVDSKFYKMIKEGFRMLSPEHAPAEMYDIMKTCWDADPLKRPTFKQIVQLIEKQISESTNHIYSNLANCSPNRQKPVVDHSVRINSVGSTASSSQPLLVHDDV
Method: as §1, §2, §3, §4, §5, §6

[4] = molecular target: 97 kinases (kinase named in endpoint) (Homo sapiens, UniProt P07949); settings: read-out: % Ctrl, RET
Chain of 97 kinases (kinase named in endpoint) (Homo sapiens, UniProt P07949) (P07949 29-1114): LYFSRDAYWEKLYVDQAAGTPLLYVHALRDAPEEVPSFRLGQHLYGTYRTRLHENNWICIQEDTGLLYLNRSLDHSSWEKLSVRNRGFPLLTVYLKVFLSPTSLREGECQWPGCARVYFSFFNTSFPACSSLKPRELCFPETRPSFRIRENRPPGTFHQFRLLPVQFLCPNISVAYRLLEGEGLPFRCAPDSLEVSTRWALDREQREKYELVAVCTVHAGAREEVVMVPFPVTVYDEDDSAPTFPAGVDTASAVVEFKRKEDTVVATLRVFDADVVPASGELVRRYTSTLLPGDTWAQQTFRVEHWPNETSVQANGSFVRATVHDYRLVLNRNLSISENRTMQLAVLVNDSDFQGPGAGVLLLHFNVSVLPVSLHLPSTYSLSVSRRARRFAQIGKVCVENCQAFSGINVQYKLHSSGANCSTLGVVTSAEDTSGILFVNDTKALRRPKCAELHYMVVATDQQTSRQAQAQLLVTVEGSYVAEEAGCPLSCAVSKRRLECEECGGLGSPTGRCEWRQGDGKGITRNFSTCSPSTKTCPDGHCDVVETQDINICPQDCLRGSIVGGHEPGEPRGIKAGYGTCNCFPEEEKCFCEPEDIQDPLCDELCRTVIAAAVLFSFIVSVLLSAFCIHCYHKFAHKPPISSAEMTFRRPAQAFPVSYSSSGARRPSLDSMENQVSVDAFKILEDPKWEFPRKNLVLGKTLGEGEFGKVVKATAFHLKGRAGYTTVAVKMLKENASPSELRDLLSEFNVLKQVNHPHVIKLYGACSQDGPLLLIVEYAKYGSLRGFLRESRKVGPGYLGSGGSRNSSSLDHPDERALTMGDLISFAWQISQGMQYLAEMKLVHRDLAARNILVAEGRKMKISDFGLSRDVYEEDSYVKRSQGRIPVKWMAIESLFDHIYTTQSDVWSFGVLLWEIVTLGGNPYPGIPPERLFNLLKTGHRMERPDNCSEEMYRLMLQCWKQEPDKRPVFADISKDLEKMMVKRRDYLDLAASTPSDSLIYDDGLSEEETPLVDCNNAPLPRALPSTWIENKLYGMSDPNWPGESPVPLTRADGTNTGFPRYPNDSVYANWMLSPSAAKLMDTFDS
Method: as §1, §2, §3, §4, §5, §6

[5] = molecular target: 97 kinases (kinase named in endpoint) (Homo sapiens, UniProt O00444); settings: read-out: % Ctrl, PLK4
Method: as §1, §2, §3, §4, §5, §6

[6] = molecular target: 97 kinases (kinase named in endpoint) (Homo sapiens, UniProt Q9HBH9); settings: read-out: % Ctrl, MKNK2
Method: as §1, §2, §3, §4, §5, §6

[7] = molecular target: 97 kinases (kinase named in endpoint) (Homo sapiens, UniProt P29317); settings: read-out: % Ctrl, EPHA2
Method: as §1, §2, §3, §4, §5, §6

[8] = molecular target: 97 kinases (kinase named in endpoint) (Homo sapiens, UniProt P49137); settings: read-out: % Ctrl, MAPKAPK2
Method: as §1, §2, §3, §4, §5, §6

[9] = molecular target: 97 kinases (kinase named in endpoint) (Homo sapiens, UniProt Q9Y463); settings: read-out: % Ctrl, DYRK1B
Chain of 97 kinases (kinase named in endpoint) (Homo sapiens, UniProt Q9Y463) (Q9Y463 whole entry): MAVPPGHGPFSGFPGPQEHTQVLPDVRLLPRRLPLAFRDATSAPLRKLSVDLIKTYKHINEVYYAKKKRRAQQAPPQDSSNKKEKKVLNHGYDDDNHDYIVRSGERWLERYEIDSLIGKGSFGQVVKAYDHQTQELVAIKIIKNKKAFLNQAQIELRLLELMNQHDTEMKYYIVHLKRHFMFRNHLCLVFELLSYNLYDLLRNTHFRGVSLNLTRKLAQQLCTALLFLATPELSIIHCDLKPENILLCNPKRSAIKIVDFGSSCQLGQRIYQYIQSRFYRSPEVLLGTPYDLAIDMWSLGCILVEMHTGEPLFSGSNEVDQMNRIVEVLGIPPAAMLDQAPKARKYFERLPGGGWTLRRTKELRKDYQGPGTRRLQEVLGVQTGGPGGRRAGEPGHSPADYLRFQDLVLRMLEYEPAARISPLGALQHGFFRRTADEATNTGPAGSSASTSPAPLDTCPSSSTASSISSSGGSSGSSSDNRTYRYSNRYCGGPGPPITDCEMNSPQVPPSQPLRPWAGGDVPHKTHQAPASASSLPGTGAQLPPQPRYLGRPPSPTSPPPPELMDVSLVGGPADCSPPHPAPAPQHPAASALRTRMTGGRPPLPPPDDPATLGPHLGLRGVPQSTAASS
Method: as §1, §2, §3, §4, §5, §6

[10] = molecular target: 97 kinases (kinase named in endpoint) (Homo sapiens, UniProt Q9UM73); settings: read-out: % Ctrl, ALK
Chain of 97 kinases (kinase named in endpoint) (Homo sapiens, UniProt Q9UM73) (Q9UM73 19-1620): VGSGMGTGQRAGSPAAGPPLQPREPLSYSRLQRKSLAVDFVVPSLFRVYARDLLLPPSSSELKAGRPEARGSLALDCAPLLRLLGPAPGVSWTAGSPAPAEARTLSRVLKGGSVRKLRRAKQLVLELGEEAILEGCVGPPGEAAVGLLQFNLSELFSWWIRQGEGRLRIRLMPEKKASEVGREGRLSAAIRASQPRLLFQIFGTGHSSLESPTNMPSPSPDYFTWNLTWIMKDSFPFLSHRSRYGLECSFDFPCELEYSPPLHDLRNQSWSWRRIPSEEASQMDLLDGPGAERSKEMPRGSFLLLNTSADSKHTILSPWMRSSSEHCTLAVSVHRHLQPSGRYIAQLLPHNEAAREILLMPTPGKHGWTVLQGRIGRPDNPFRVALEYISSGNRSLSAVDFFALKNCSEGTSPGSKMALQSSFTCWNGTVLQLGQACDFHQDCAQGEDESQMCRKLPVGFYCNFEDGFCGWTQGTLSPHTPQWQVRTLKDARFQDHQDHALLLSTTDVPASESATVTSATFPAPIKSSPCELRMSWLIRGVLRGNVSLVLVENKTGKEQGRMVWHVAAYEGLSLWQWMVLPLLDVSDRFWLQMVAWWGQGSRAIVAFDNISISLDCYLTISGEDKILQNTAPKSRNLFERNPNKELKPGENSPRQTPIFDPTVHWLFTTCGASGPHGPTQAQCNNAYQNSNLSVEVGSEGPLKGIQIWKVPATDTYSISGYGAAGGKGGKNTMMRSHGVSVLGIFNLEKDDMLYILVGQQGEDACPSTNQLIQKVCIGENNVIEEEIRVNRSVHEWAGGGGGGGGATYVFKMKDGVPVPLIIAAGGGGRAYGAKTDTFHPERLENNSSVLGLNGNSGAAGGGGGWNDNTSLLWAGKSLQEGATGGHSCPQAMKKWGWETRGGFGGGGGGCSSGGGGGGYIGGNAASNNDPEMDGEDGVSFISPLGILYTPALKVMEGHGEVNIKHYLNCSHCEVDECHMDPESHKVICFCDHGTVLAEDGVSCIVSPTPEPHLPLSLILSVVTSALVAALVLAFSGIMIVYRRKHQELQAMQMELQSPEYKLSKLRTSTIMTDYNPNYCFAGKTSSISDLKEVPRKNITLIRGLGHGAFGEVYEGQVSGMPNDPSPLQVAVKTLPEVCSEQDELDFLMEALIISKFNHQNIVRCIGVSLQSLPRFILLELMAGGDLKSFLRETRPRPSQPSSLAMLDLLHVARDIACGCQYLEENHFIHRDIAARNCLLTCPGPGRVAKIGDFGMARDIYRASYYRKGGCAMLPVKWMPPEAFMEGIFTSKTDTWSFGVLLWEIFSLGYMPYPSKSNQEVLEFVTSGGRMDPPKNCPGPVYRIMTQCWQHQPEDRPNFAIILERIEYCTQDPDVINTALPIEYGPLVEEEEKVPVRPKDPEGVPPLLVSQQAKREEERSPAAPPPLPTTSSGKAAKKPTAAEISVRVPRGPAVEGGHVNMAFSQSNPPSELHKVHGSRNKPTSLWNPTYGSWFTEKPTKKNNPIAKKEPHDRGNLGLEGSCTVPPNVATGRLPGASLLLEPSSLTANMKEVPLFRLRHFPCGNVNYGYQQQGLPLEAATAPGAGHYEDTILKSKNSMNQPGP
Method: as §1, §2, §3, §4, §5, §6

[11] = molecular target: 97 kinases (kinase named in endpoint) (Homo sapiens, UniProt P53350); settings: read-out: % Ctrl, PLK1
Method: as §1, §2, §3, §4, §5, §6

[12] = molecular target: 97 kinases (kinase named in endpoint) (Homo sapiens, UniProt Q13873); settings: read-out: % Ctrl, BMPR2
Method: as §1, §2, §3, §4, §5, §6

[13] = molecular target: 97 kinases (kinase named in endpoint) (Homo sapiens, UniProt Q86UX6); settings: read-out: % Ctrl, YANK3
Method: as §1, §2, §3, §4, §5, §6

[14] = molecular target: 97 kinases (kinase named in endpoint) (Homo sapiens, UniProt P21802); settings: read-out: % Ctrl, FGFR2
Method: as §1, §2, §3, §4, §5, §6

[15] = molecular target: 97 kinases (kinase named in endpoint) (Homo sapiens, UniProt P27361); settings: read-out: % Ctrl, ERK1
Method: as §1, §2, §3, §4, §5, §6

[16] = molecular target: 97 kinases (kinase named in endpoint) (Homo sapiens, UniProt Q9UPE1); settings: read-out: % Ctrl, SRPK3
Method: as §1, §2, §3, §4, §5, §6

[17] = molecular target: 97 kinases (kinase named in endpoint) (Homo sapiens, UniProt O15111); settings: read-out: % Ctrl, IKK-alpha
Method: as §1, §2, §3, §4, §5, §6

[18] = molecular target: 97 kinases (kinase named in endpoint) (Homo sapiens, UniProt P43403); settings: read-out: % Ctrl, ZAP70
Method: as §1, §2, §3, §4, §5, §6

[19] = molecular target: 97 kinases (kinase named in endpoint) (Homo sapiens, UniProt Q86V86); settings: read-out: % Ctrl, PIM3
Method: as §1, §2, §3, §4, §5, §6

[20] = molecular target: 97 kinases (kinase named in endpoint) (Homo sapiens, UniProt Q8IYT8); settings: read-out: % Ctrl, ULK2
Method: as §1, §2, §3, §4, §5, §6

[21] = molecular target: 97 kinases (kinase named in endpoint) (Homo sapiens, UniProt P51812); settings: read-out: % Ctrl, RSK2(Kin.Dom.1-N-terminal)
Method: as §1, §2, §3, §4, §5, §6

[22] = molecular target: 97 kinases (kinase named in endpoint) (Homo sapiens, UniProt P45983); settings: read-out: % Ctrl, JNK1
Method: as §1, §2, §3, §4, §5, §6

[23] = molecular target: 97 kinases (kinase named in endpoint) (Homo sapiens, UniProt P45984); settings: read-out: % Ctrl, JNK2
Method: as §1, §2, §3, §4, §5, §6

[24] = molecular target: 97 kinases (kinase named in endpoint) (Homo sapiens, UniProt O75116); settings: read-out: % Ctrl, ROCK2
Method: as §1, §2, §3, §4, §5, §6

[25] = molecular target: 97 kinases (kinase named in endpoint) (Homo sapiens, UniProt Q15759); settings: read-out: % Ctrl, p38-beta
Method: as §1, §2, §3, §4, §5, §6

[26] = molecular target: 97 kinases (kinase named in endpoint) (Homo sapiens, UniProt P04049); settings: read-out: % Ctrl, RAF1
Method: as §1, §2, §3, §4, §5, §6

[27] = molecular target: 97 kinases (kinase named in endpoint) (Homo sapiens, UniProt P27448); settings: read-out: % Ctrl, MARK3
Chain of 97 kinases (kinase named in endpoint) (Homo sapiens, UniProt P27448) (P27448 whole entry): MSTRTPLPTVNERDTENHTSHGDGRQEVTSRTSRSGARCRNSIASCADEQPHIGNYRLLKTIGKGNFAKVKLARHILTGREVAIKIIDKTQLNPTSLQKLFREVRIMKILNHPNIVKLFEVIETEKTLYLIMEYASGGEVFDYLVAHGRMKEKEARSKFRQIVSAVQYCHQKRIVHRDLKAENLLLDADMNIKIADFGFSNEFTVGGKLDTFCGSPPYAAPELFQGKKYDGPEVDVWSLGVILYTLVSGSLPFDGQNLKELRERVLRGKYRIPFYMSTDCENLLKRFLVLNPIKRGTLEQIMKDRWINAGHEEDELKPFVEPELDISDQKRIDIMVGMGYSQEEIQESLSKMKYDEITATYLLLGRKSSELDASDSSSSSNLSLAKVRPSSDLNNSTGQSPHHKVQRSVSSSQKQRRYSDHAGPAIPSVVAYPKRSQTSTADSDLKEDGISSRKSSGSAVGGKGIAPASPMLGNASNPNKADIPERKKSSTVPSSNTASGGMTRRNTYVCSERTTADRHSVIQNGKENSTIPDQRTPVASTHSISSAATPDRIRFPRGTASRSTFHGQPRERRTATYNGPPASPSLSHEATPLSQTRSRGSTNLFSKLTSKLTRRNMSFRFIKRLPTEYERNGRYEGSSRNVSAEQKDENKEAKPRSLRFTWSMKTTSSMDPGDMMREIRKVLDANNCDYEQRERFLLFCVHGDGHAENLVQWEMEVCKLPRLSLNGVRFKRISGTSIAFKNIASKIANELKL
Method: as §1, §2, §3, §4, §5, §6

[28] = molecular target: 97 kinases (kinase named in endpoint) (Homo sapiens, UniProt P08069); settings: read-out: % Ctrl, IGF1R
Method: as §1, §2, §3, §4, §5, §6

Compound | remaining binding at 1 µM [1] | remaining binding at 1 µM [2] | remaining binding at 1 µM [3] | remaining binding at 1 µM [4] | remaining binding at 1 µM [5] | remaining binding at 1 µM [6] | remaining binding at 1 µM [7] | remaining binding at 1 µM [8] | remaining binding at 1 µM [9] | remaining binding at 1 µM [10] | remaining binding at 1 µM [11] | remaining binding at 1 µM [12] | remaining binding at 1 µM [13] | remaining binding at 1 µM [14] | remaining binding at 1 µM [15] | remaining binding at 1 µM [16] | remaining binding at 1 µM [17] | remaining binding at 1 µM [18] | remaining binding at 1 µM [19] | remaining binding at 1 µM [20] | further results
CCCCCCCCCCCCCC(=O)N[C@@H](CC(N)=O)C(=O)N[C@@H](CC(C)C)C(=O)N[C@]1(C)CCCCCCC=CCCC[C@@](C)(C(=O)N[C@@H](CCC(=O)O)C(=O)N[C@@H](CC(C)C)C(=O)N[C@@H](CC(N)=O)C(N)=O)NC(=O)[C@H](CC(C)C)NC(=O)[C@H](CC(C)C)NC(=O)[C@H](CCCNC(=N)N)NC(=O)[C@H](CC(=O)O)NC(=O)[C@H](CC(C)C)NC(=O)[C@H](CCC(=O)O)NC1=O [compound 2012] | 100% | 83% | 96% | 99% | 97% | 100% | 98% | 100% | 91% | 100% | 89% | 100% | 91% | 90% | 100% | 79% | 100% | 96% | 100% | 100% | remaining binding at 1 µM [21]: 100%; remaining binding at 1 µM [22]: 97%; remaining binding at 1 µM [23]: 100%; remaining binding at 1 µM [24]: 100%; remaining binding at 1 µM [25]: 98%; remaining binding at 1 µM [26]: 81%; remaining binding at 1 µM [27]: 91%; remaining binding at 1 µM [28]: 100%
CNC(=O)c1ccc(Nc2ncc(C(F)(F)F)c(NCc3nccnc3N(C)S(C)(=O)=O)n2)cc1 [defactinib] | 65% | 100% | 47% | 12% | 39% | 100% | 86% | 100% | 14% | 32% | 17% | 25% | 89% | 43% | 88% | 47% | 100% | 95% | 40% | 28% | remaining binding at 1 µM [21]: 9.9%; remaining binding at 1 µM [22]: 61%; remaining binding at 1 µM [23]: 52%; remaining binding at 1 µM [24]: 43%; remaining binding at 1 µM [25]: 89%; remaining binding at 1 µM [26]: 86%; remaining binding at 1 µM [27]: 50%; remaining binding at 1 µM [28]: 71%
